According to ChEMBL document CHEMBL1143539, “A fluorimetric assay for the spontaneous release of an N7-alkylguanine residue from duplex DNA” (Bioorg Med Chem Lett, 2005):

What was measured:
Type in all cases: ADME
[1] = Half-life by fluorescence method at 30 degrees C
[2] = Half-life by fluorescence method at 25 degrees C
[3] = Half-life by fluorescence method at 37 degrees C

half-life [1]: 4.6 h
half-life [2]: 11 h
half-life [3]: 2.2 h
Structure (SMILES): C[C@H]1NC(=O)CC2([C@@](C)(O)C(=O)O)CC[C@@](C)(n3cnc4nc(N)nc(O)c43)[C@@H](S2)[C@@H](O)C(=O)/C=C/C=C\c2csc1n2
